Reference: ChEMBL document CHEMBL5052828, “Therapeutic agents for treating and preventing autoimmune diseases and cancer and a screening method” (2020)
Activity calls are given as the source filed them. No cut-off for these calls is given here.

Tests used:
Mus musculus [1] = experiment: Antiinflammatory activity in C57BL/6 mouse model of collagen-induced arthritis assessed as reduction in serum IL-6 level at 0.25 mg, ip; format: functional, organism-based
LNCaP [2] = experiment: Antiproliferative activity against human LNCaP cells after 4 hrs by CCK-8 assay; format: functional, cell-based
Mus musculus [3] = experiment: Protection against imiquimod-induced psoriasis model of BALB/c mouse assessed as reduction in clinical score at 1 mg treated topically; format: functional, organism-based
A549 [4] = experiment: Antiproliferative activity against human A549 cells at 20 uM assessed as suppression of cell viability after 4 hrs by CCK-8 assay; format: functional
LNCaP [5] = experiment: Antiproliferative activity against human LNCaP cells at 25 uM assessed as suppression of cell viability after 4 hrs by CCK-8 assay; format: functional
Mus musculus [6] = experiment: Protection against imiquimod-induced psoriasis model of BALB/c mouse assessed as reduction in IL-17a mRNA expression at 1 mg treated topically; format: functional, organism-based
Mus musculus [7] = experiment: Protection against imiquimod-induced psoriasis model of BALB/c mouse assessed as reduction in IL-6 mRNA expression at 1 mg treated topically; format: functional, organism-based
A549 [8] = experiment: Antiproliferative activity against human A549 cells after 4 hrs by CCK-8 assay; format: functional, cell-based; settings: A549, 4 h
HEK293T [9] = experiment: Inhibition of Arid5a in human HEK293T cells at 40 uM assessed as inhibition of stabilization of IL-6 on 3'UTR measured by luciferase assay; format: cell-based
Mus musculus [10] = experiment: Antiinflammatory activity in C57BL/6 mouse model of collagen-induced arthritis assessed as reduction in clinical score at 0.25 mg, ip; format: functional, organism-based
MDA-MB-231 [11] = experiment: Antiproliferative activity against human MDA-MB-231 cells after 4 hrs by CCK-8 assay; format: functional, cell-based; settings: MDA-MB-231, 4 h
Mus musculus [12] = experiment: Antiinflammatory activity in C57BL/6 mouse model of collagen-induced arthritis assessed as reduction in frequency of CD4+ IL-17+ cells at 0.25 mg, ip; format: functional, organism-based
MDA-MB-231 [13] = experiment: Antiproliferative activity against human MDA-MB-231 cells at 20 uM assessed as suppression of cell viability after 4 hrs by CCK-8 assay; format: functional
Mus musculus [14] = experiment: Immunosuppressive activity in MOG (35 to 55 residues)/pertussis toxin-induced experimental autoimmune encephalomyelitis female C57BL/6 mouse model assessed as reduction in serum TNF-alpha level at 0.5 mg, ip; format: functional, organism-based
Mus musculus [15] = experiment: Immunosuppressive activity in MOG (35 to 55 residues)/pertussis toxin-induced experimental autoimmune encephalomyelitis female C57BL/6 mouse model assessed as reduction in serum IL-6 level at 0.5 mg, ip; format: functional, organism-based
HEK293T [16] = experiment: Inhibition of Arid5a V34 pocket X mutant in human HEK293T cells at 40 uM assessed as inhibition of stabilization of STAT3 on 3'UTR measured by luciferase assay; format: cell-based
HEK293T [17] = experiment: Inhibition of Arid5a V34 pocket X mutant in human HEK293T cells at 40 uM assessed as inhibition of stabilization of OX40 on 3'UTR measured by luciferase assay; format: cell-based
Macrophage [18] = experiment: Antiinflammatory activity in LPS-stimulated mouse peritoneal macrophages at 40 uM assessed as decrease in IL-6 level measured by ELISA; format: functional, cell-based
Macrophage [19] = experiment: Antiinflammatory activity in LPS-stimulated mouse peritoneal macrophages at 40 uM assessed as decrease in frequency of CD4 + OX40 + T cells in polarized Th17 cells measured by flow cytometry analysis; format: functional, cell-based
HEK293T [20] = experiment: Inhibition of Arid5a Y137 pocket X mutant in human HEK293T cells at 40 uM assessed as inhibition of stabilization of IL-6 on 3'UTR measured by luciferase assay; format: cell-based
HEK293T [21] = experiment: Inhibition of Arid5a in human HEK293T cells at 10 to 60 uM assessed as inhibition of stabilization of IL-6 on 3'UTR measured by luciferase assay; format: cell-based; settings: dose 10-60 µM
HEK293T [22] = experiment: Inhibition of Arid5a Y137 pocket X mutant in human HEK293T cells at 40 uM assessed as inhibition of stabilization of OX40 on 3'UTR measured by luciferase assay; format: cell-based
Mus musculus [23] = experiment: Immunosuppressive activity in MOG (35 to 55 residues)/pertussis toxin-induced experimental autoimmune encephalomyelitis female C57BL/6 mouse model assessed as reduction in clinical scores at 0.5 mg, ip; format: functional, organism-based
Macrophage [24] = experiment: Antiinflammatory activity in LPS-stimulated mouse peritoneal macrophages at 40 uM assessed as decrease STAT3 mRNA expression in Th17 cells; format: functional, cell-based
Macrophage [25] = experiment: Antiinflammatory activity in LPS-stimulated mouse peritoneal macrophages at 40 uM assessed as decrease in IL-17 level measured by ELISA; format: functional, cell-based
HEK293T [26] = experiment: Inhibition of Arid5a Y137 pocket X mutant in human HEK293T cells at 40 uM assessed as inhibition of stabilization of STAT3 on 3'UTR measured by luciferase assay; format: cell-based
HEK293T [27] = experiment: Inhibition of Arid5a V34 pocket X mutant in human HEK293T cells at 40 uM assessed as inhibition of stabilization of IL-6 on 3'UTR measured by luciferase assay; format: cell-based
Mus musculus [28] = experiment: Immunosuppressive activity in MOG (35 to 55 residues)/pertussis toxin-induced experimental autoimmune encephalomyelitis female C57BL/6 mouse model assessed as reduction in IL-17 level in encephalitogenic CD4 + T cells at 0.5 mg, ip; format: functional, organism-based; settings: T-cell
Mus musculus [29] = experiment: Immunosuppressive activity in MOG (35 to 55 residues)/pertussis toxin-induced experimental autoimmune encephalomyelitis female C57BL/6 mouse model assessed as reduction in frequency of CD4 + OX40 + T cells at 0.5 mg, ip; format: functional, organism-based; settings: T-cell
HEK293T [30] = experiment: Inhibition of Arid5a in human HEK293T cells at 10 to 60 uM assessed as inhibition of stabilization of OX40 on 3'UTR measured by luciferase assay; format: cell-based; settings: dose 10-60 µM
Homo sapiens = organism: Homo sapiens; experiment: Inhibition of human Arid5a binding to (ADE) -like stem loop in the OX40 3'UTR measured by RNA-protein binding assay; settings: dose 0.5 mg
Macrophage [31] = experiment: Antiinflammatory activity in LPS-stimulated mouse peritoneal macrophages at 40 uM assessed as effect on TNF-alpha level measured by ELISA; format: functional, cell-based
HEK293T [32] = experiment: Inhibition of Arid5a F56 pocket X mutant in human HEK293T cells at 40 uM assessed as inhibition of stabilization of OX40 on 3'UTR measured by luciferase assay; format: cell-based
HEK293T [33] = experiment: Inhibition of Arid5a F56 pocket X mutant in human HEK293T cells at 40 uM assessed as inhibition of stabilization of IL-6 on 3'UTR measured by luciferase assay; format: cell-based
Mus musculus [34] = experiment: Immunosuppressive activity in MOG (35 to 55 residues)/pertussis toxin-induced experimental autoimmune encephalomyelitis female C57BL/6 mouse model assessed as reduction in OX40 mRNA expression in CD4 + T cells at 0.5 mg, ip; format: functional, organism-based; settings: T-cell
HEK293T [35] = experiment: Inhibition of Arid5a L84 pocket X mutant in human HEK293T cells at 40 uM assessed as inhibition of stabilization of OX40 on 3'UTR measured by luciferase assay; format: cell-based
HEK293T [36] = experiment: Inhibition of Arid5a F56 pocket X mutant in human HEK293T cells at 40 uM assessed as inhibition of stabilization of STAT3 on 3'UTR measured by luciferase assay; format: cell-based
HEK293T [37] = experiment: Inhibition of Arid5a L84 pocket X mutant in human HEK293T cells at 40 uM assessed as inhibition of stabilization of STAT3 on 3'UTR measured by luciferase assay; format: cell-based
HEK293T [38] = experiment: Inhibition of Arid5a L84 pocket X mutant in human HEK293T cells at 40 uM assessed as inhibition of stabilization of IL-6 on 3'UTR measured by luciferase assay; format: cell-based
HEK293T [39] = experiment: Inhibition of Arid5a in human HEK293T cells at 10 to 60 uM assessed as inhibition of stabilization of STAT3 on 3'UTR measured by luciferase assay; format: cell-based; settings: dose 10-60 µM

With Cc1nnc(SCC(=O)c2ccccc2)o1 the Activity (Mus musculus [1]) was “Active”, the IC50 (LNCaP [2]) was 34.6 µM and the Activity (Mus musculus [3]) was “Active”. The Activity (A549 [4]) was 59%, the Activity (LNCaP [5]) was 61% and the Activity (Mus musculus [6]) was “Active”. The Activity (Mus musculus [7]) was “Active”, the IC50 (A549 [8]) was 28.4 µM and the inhibition (HEK293T [9]) was “Active”. The Activity (Mus musculus [10]) was “Active”, the IC50 (MDA-MB-231 [11]) was 27.8 µM and the Activity (Mus musculus [12]) was “Active”. For the same molecule, the Activity (MDA-MB-231 [13]) was 64%.

With O=C(CSc1nnc(-c2ccncc2)o1)c1ccccc1 the Activity (Mus musculus [14]) was “Active”, the Activity (Mus musculus [15]) was “Active” and the inhibition (HEK293T [16]) was “inactive”. For the same molecule, the inhibition (HEK293T [17]) was “inactive”, the Activity (Macrophage [18]) was “Active” and the Activity (Macrophage [19]) was “Active”. For the same molecule, the inhibition (HEK293T [20]) was “inactive”, the inhibition (HEK293T [21]) was “Active” and the inhibition (HEK293T [22]) was “inactive”. For the same molecule, the Activity (Mus musculus [1]) was “Active”, the Activity (Mus musculus [23]) was “Active” and the Activity (Macrophage [24]) was “Active”. The Activity (Macrophage [25]) was “Active”, the inhibition (HEK293T [26]) was “inactive” and the IC50 (LNCaP [2]) was 34.6 µM. For the same molecule, the inhibition (HEK293T [27]) was “inactive”, the Activity (Mus musculus [3]) was “Active” and the Activity (Mus musculus [28]) was “Active”. For the same molecule, the Activity (A549 [4]) was 59%, the Activity (Mus musculus [29]) was “Active” and the inhibition (HEK293T [30]) was “Active”. For the same molecule, the inhibition (Homo sapiens) was “Active”, the Activity (LNCaP [5]) was 61% and the Activity (Macrophage [31]) was “inactive”. The inhibition (HEK293T [32]) was “inactive”, the inhibition (HEK293T [33]) was “inactive” and the Activity (Mus musculus [34]) was “Active”. For the same molecule, the Activity (Mus musculus [6]) was “Active”, the inhibition (HEK293T [35]) was “inactive” and the inhibition (HEK293T [36]) was “inactive”. The inhibition (HEK293T [37]) was “inactive”, the Activity (Mus musculus [7]) was “Active” and the IC50 (A549 [8]) was 28.4 µM. For the same molecule, the inhibition (HEK293T [9]) was “Active”, the Activity (Mus musculus [10]) was “Active” and the IC50 (MDA-MB-231 [11]) was 27.8 µM. For the same molecule, the inhibition (HEK293T [38]) was “inactive”, the Activity (Mus musculus [12]) was “Active” and the Activity (MDA-MB-231 [13]) was 64%. The inhibition (HEK293T [39]) was “Active”.

With Cc1nnc(NCC(=O)c2ccccc2)s1 the Activity (Mus musculus [1]) was “Active”, the IC50 (LNCaP [2]) was 34.6 µM and the Activity (Mus musculus [3]) was “Active”. The Activity (A549 [4]) was 59%, the Activity (LNCaP [5]) was 61% and the Activity (Mus musculus [6]) was “Active”. For the same molecule, the Activity (Mus musculus [7]) was “Active”, the IC50 (A549 [8]) was 28.4 µM and the inhibition (HEK293T [9]) was “Active”. For the same molecule, the Activity (Mus musculus [10]) was “Active”, the IC50 (MDA-MB-231 [11]) was 27.8 µM and the Activity (Mus musculus [12]) was “Active”. It also gave an Activity (MDA-MB-231 [13]) of 64%.

CC(=O)CSc1nnc(-c2cccnc2)o1 was tested, and the Activity (Mus musculus [1]) was “Active”, the IC50 (LNCaP [2]) was 34.6 µM and the Activity (Mus musculus [3]) was “Active”. For the same molecule, the Activity (A549 [4]) was 59%, the Activity (LNCaP [5]) was 61% and the Activity (Mus musculus [6]) was “Active”. The Activity (Mus musculus [7]) was “Active”, the IC50 (A549 [8]) was 28.4 µM and the inhibition (HEK293T [9]) was “Active”. The Activity (Mus musculus [10]) was “Active”, the IC50 (MDA-MB-231 [11]) was 27.8 µM and the Activity (Mus musculus [12]) was “Active”. It also gave an Activity (MDA-MB-231 [13]) of 64%.
